From patent US8846704B2, “Thiopyrimidine-based compounds and uses thereof” (YM Biosciences Austraila Pty Ltd, priority 2007, dated 2014) come the findings set out here.

The experiment addresses T1, BaF3 TELJAK3 cells (Homo sapiens, UniProt P52333).
T1 construct: fused on or other part: TEL (ETV6) N-terminal part, coding nucleotides 1-487, serves as the oligomerising partner; It is fused through a Sal I site to the JAK3 kinase domain and expressed from pTRE2 in BaF3 cells bearing pTET-off; P41212 (Transcription factor ETV6)
T1 sequence (P52333 1-1124): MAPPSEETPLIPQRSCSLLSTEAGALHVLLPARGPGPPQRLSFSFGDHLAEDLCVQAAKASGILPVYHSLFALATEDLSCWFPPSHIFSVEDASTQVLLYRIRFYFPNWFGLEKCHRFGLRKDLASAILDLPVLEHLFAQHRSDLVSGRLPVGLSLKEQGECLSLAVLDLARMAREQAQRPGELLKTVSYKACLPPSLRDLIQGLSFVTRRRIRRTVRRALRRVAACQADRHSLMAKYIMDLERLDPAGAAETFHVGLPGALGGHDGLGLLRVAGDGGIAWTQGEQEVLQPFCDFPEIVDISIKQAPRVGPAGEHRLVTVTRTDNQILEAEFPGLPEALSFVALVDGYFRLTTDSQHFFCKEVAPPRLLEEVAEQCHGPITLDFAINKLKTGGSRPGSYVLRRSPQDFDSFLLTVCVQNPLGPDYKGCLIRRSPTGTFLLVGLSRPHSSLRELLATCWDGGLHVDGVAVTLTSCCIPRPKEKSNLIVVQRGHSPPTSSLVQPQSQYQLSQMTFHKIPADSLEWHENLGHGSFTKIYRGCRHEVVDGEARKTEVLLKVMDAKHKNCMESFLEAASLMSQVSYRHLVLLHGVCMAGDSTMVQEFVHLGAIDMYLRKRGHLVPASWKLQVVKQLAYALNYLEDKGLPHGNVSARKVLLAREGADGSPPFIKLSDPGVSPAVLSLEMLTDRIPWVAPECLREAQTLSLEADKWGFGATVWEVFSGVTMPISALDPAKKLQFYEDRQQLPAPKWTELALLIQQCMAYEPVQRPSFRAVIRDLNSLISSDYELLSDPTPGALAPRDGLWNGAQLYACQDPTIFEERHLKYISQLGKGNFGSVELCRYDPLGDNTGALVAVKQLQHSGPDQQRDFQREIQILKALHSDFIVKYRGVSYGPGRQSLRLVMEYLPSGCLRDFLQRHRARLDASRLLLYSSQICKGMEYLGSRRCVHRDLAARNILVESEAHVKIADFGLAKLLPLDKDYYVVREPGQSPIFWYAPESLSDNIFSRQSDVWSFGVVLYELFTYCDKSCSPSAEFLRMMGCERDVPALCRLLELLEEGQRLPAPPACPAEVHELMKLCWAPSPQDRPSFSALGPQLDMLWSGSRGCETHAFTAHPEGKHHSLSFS
Kind of experiment: Cellular screening, BaF3 TEL:JAK3 cells, Alamar Blue. It is filed as cell-based. Conditions: 40 hr, read-out: BafT_J3 IC50_nM. As for the experimental part: For screening purposes, compounds were diluted in 96 well plates at a concentration of 20 μM. Plates were warmed at 37° C. for 30 minutes before the assay was performed.
The coding region encompassing nucleotides 1-487 of TEL was amplified by PCR using the oligonucleotides STEL (5′-GGAGGATCCTGATCTCTCTCGCTGTGAGAC-3′) [SEQ ID NO 14] and 3TEL (5′-AGGC GTCGACTTCTTCTTCATGGTTCTG-3′) [SEQ ID NO 15] and U937 mRNA as a template. A […] restriction site was incorporated into the STEL primer, and a Sal I restriction site was incorporated into the 3TEL primer. The regions encompassing the kinase domain of JAK2 (nucleotides 2994-3914; JAK2F 5′-ACGC GTCGACGGTGCCTTTGAAGACCGGGAT-3′ [SEQ ID NO 16]; JAK2R 5′-ATAGTTTAGCGGCCGCTCAGAATGAAGGTCATTT-3′) [SEQ ID NO 17] and JAK3 (nucleotides 2520-3469; JAK3F 5′-GAAGTCGACTATGCCTGCCAAGACCCCACGATCTT-3′) [SEQ ID NO 18] were generated by PCR using Taq DNA polymerase (Gibco/BRL) and […] as a template. A Sal I restriction site was incorporated into the forward primer of JAK2 and JAK3, a Not I site was incorporated into the JAK2 reverse primer and a Xba I site was added to the reverse primer of JAK3.
The TEL/Jak3 fusion was prepared by ligation of the JAK3 Sal I/Not I cleaved kinase domain PCR product with the BamH I/Sal I restriction digested TEL product, followed by ligation of the ligation product into the BamH I/Not I digested pTRE2, to give the TEL/Jak3 fusion plasmid pTELJAK3.
The growth factor dependant myelomonocytic cell line BaF3 bearing the pTET-off plasmid (Clontech) was transfected with either pTELJAK2 or pTELJAK3, and the transfected cells were selected for growth-factor independent cell growth. The BaF3 wild-type cells were cultured in DMEM containing 10% FCS, 10% WEHI 3B conditioned medium. The BaF3 TELJAK cells ([…]) were cultured in DMEM 10% Tet-System Approved FBS (without WEHI 3B conditioned medium).
Cell suspensions were prepared by harvesting cells from culture (the cells used in this test were in late log phase growth with high viability.) Cells were diluted in the appropriate growth medium, as described above, to 1.1× final concentration (from 50,000 cell/mL to 200,000 cell/mL, depending on cell line).
Compounds to be tested were added (10 μL, 10× final concentration) to a flat bottomed 96-well plate. The cellular suspension (90 μL per well) was then added, and the plate incubated for 40 hr at 37° C., 5% CO2. Alamar Blue 10 μL per well was added and the plates returned to the incubator for a further 4-6 hours. The plates were then read at 544 nm.

For `C=CC(=O)Nc1ccc(Sc2nc(Nc3ccc(N4CCOCC4)cc3)ncc2C)cc1CC` [Compound 260, N-(2-ethyl-4-(5-methyl-2-(4-morpholinophenylao)pyrimidin-4-ylthio)phenyl)acrylamide], the GI50 is under 5000 nM.

For the molecule `C=CC(=O)N(C)c1ccc(Sc2nc(Nc3ccc(N4CCOCC4)cc3)ncc2Br)cc1` [Compound 261, N-(4-(5-bromo-2-(4-morpholinophenylao)pyrimidin-4-ylthio)phenyl)-N-methylacrylamide], the GI50 is under 1000 nM.

In the case of `Cc1cnc(Nc2ccc(N3CCOCC3)cc2)nc1Sc1ccc(N)nc1` [Compound 262, 4-(6-aopyridin-3-ylthio)-5-methyl-N-(4-morpholinophenyl)pyrimidin-2-ae], the GI50 was over 20000 nM.

`Nc1ccc(Sc2nc(Nc3ccc(N4CCOCC4)cc3)ncc2F)cc1` [Compound 263, 4-(4-aophenylthio)-5-fluoro-N-(4-morpholinophenyl)pyrimidin-2-ae]: the GI50 was under 5000 nM.

Turning to `Nc1ccc(Sc2nc(Nc3cccc(N4CCOCC4)c3)ncc2I)cc1` [Compound 264, 4-(4-aophenylthio)-5-iodo-N-(3-morpholinophenyl)pyrimidin-2-ae], the GI50 was under 5000 nM.

`C=CC(=O)Nc1ccc(Sc2nc(Nc3ccc(N4CCOCC4)cc3)ncc2F)cc1` [Compound 268, N-(4-(5-fluoro-2-(4-morpholinophenylao)pyrimidin-4-ylthio)phenyl)acrylamide]: the GI50 is under 1000 nM.

Regarding `C=CC(=O)Nc1ccc(Sc2nc(Nc3cccc(N4CCOCC4)c3)ncc2I)cc1` [Compound 269, N-(4-(5-iodo-2-(3-morpholinophenylao)pyrimidin-4-ylthio)phenyl)acrylamide], the GI50 was under 1000 nM.

For `C=CC(=O)Nc1ccc(Sc2ccnc(Nc3ccc(O)cc3)n2)cc1` [Compound 276, N-(4-(2-(4-hydroxyphenylao)pyrimidin-4-ylthio)phenyl)acrylamide], the GI50 was under 1000 nM.

On to `C=CC(=O)Nc1ccc(Sc2ccnc(Nc3cccc(O)c3)n2)cc1` [Compound 277, N-(4-(2-(3-hydroxyphenylao)pyrimidin-4-ylthio)phenyl)acrylamide], for which the GI50 was under 1000 nM.

With `C=CC(=O)Nc1ccc(Sc2ccnc(Nc3cccc(CO)c3)n2)cc1` [Compound 278, N-(4-(2-(3-(hydroxymethyl)phenylao)pyrimidin-4-ylthio)phenyl)acrylamide], the GI50 was under 1000 nM.

As for `C=CC(=O)Nc1ccc(Sc2nc(Nc3ccc(N4CCC(O)C4)cc3)ncc2C)cc1` (stereo not shown) [Compound 295, N-(4-(2-(4-(3-hydroxypyrrolidin-1-yl)phenylao)-5-methylpyrimidin-4-ylthio)phenyl)acrylamide], the GI50 is under 1000 nM.

For the molecule `C=CC(=O)Nc1ccc(Sc2nc(Nc3ccc(NS(C)(=O)=O)c(OC)c3)ncc2C)cc1` [Compound 296, N-(4-(2-(3-methoxy-4-(methylsulfonamido)phenylao)-5-methylpyrimidin-4-ylthio)phenyl)acrylamide], the GI50 is under 1000 nM.

With `C=CC(=O)Nc1ccc(Sc2nc(Nc3ccc(N4CCCC(O)C4)cc3)ncc2C)cc1` (stereo not shown) [Compound 299, N-(4-(2-(4-(3-hydroxypiperidin-1-yl)phenylao)-5-methylpyrimidin-4-ylthio)phenyl)acrylamide], the GI50 is under 1000 nM.

Regarding `C=CC(=O)Nc1ccc(Sc2nc(Nc3ccc(N4CCOCC4)cc3)ncc2Br)cc1` [Compound 306, N-(4-(5-bromo-2-(4-morpholinophenylao)pyrimidin-4-ylthio)phenyl)acrylamide], the GI50 is under 1000 nM.

Turning to `O=C(/C=C\Cl)Nc1ccc(Sc2ccnc(Nc3ccc(N4CCOCC4)cc3)n2)cc1` [Compound 346, (Z)-3-chloro-N-(4-(2-(4-morpholinophenylao)pyrimidin-4-ylthio)phenyl)acrylamide], the GI50 is under 1000 nM.

For `Cc1cnc(Nc2ccc(N3CCOCC3)cc2)nc1Sc1ccc(NC(=O)/C=C\C(=O)O)cc1` [Compound 380, (Z)-4-(4-(5-methyl-2-(4-morpholinophenylao)pyrimidin-4-ylthio)phenylao)-4-oxobut-2-enoic acid], the GI50 is over 20000 nM.
